Entries after “also recorded” stand apart in the source; their conditions may differ.

The test system of one assay is E. coli persisters. Kind of assay: E. coli persister assay (survival by c.f.u. per ml). Type of assay: cell-based, Escherichia coli (K12 EMG2). The following applies: for potentiation of gentamicin against E. coli persisters by metabolite / reduction of persister viability (killing by gentamicin induced by metabolite): metabolite plus 10 μg/mL gentamicin; for potentiation of gentamicin against E. coli persisters by metabolite / reduction of persister viability (killing by gentamicin induced by metabolite) / potentiation of gentamicin against ΔndhΔnuoI strain persisters: 2 h; for killing of E. coli persisters by antibiotic without metabolite: antibiotic alone, no carbon source; for killing of E. coli persisters by antibiotic in the presence of mannitol: antibiotic plus 10 mM mannitol; for reduction of persister viability (killing by gentamicin induced by metabolite): M9 minimal media; for potentiation of gentamicin against ΔndhΔnuoI strain persisters: ΔndhΔnuoI E. coli, gentamicin plus metabolite. Here is the method:
(§1) For E. coli (K12 EMG2 strain) persister assays, as described herein, samples were grown to stationary phase in Luria-bertani (LB) broth. Cultures were then treated for 4 hours with 5 μg/mL ofloxacin. […] Samples were then washed with 10 mL 1× filtered PBS and re-suspended in M9 minimal media. Metabolites (Glucose, mannitol, fructose, and pyruvate) and aminoglycoside antibiotics (10 μg/mL gentamicin, 50 μg/mL streptomycin, and 30 μg/mL kanamycin) were added, and samples were incubated at 37° C., 300 RPM, and 80% humidity. Resuspension of samples in defined minimal media allowed precise and specific testing of the effect of different metabolites on persister viability, without the possible confounding factors that a more complex media would present. For S. aureus persister (ATCC 25923 strain) experiments, cells were grown at 37° C. and 300 RPM in LB broth to an OD600 of 0.3. Cells were then diluted 1:1000 in 25 mL LB and grown for 16 hours at 37° C. and 300 RPM in 250 mL flasks. Cultures were treated with carbon source and antibiotic. Previous work has shown that, approximately all, stationary phase S. aureus cells are persistent.
At specified time points, 10 μL aliquots of samples were removed, serially diluted, and spot-plated onto LB agar plates to determine colony forming units/mL (CFU/mL). Only dilutions that yielded between 10-100 colonies were counted. Survival was determined by dividing a replicate's CFU/mL at each time point by the initial CFU/mL for the replicate.
Given the dormancy of bacterial persisters and the known energy requirement for aminoglycoside activity^16, we tested whether metabolic stimulation could potentiate the efficacy of aminoglycosides against bacterial persisters. To test this, we screened metabolites for their ability to potentiate aminoglycosides against E. coli persisters. We selected carbon sources to maximize coverage of glycolysis, the pentose-phosphate pathway (PPP) and the Entner-Doudoroff pathway (EDP) (FIGS. 1A, 1B). Bacterial persisters were isolated (as described under “Methods”), re-suspended in minimal media supplemented with individual metabolites and then treated for 2 hours with the aminoglycoside gentamicin.
The following concentrations of carbon sources were used in this study: 10 mM glucose, 10 mM mannitol, 10 mM fructose, 20 mM glycerol, 30 mM glycolate, 10 mM galactarate, 20 mM pyruvate, 10 mM gluconate, 12 mM arabinose and 12 mM ribose. 10 mM acetate was used as a supplement and 30 mM acetate was used as a potentiating metabolite in control experiments. Carbon sources were purchased from Sigma or Fisher. In E. coli persister assays, samples were re-suspended in M9 minimal media salts plus a carbon source. In all experiments using CCCP, samples were pre-treated for 5 min with the proton ionophore before antibiotic addition.
For E. coli persister assays, samples were grown to stationary phase as described above. Cultures were then treated for 4 h with 5 μg ml^−1 ofloxacin in the above-stated growth conditions. […] Samples were then washed with 10 ml of 1× filtered PBS and re-suspended in M9 minimal media. Carbon sources and antibiotics were added and samples were incubated at 37° C. 300 r.p.m. and 80% humidity. Re-suspension of samples in defined minimal media allowed us to test the effects of different carbon sources on persister viability precisely and specifically, without the possible confounding factors that a more complex medium would present. For S. aureus persister experiments, cells were grown at 37° C. and 300 r.p.m. in LB broth to an OD600 of 0.3. Cells were then diluted 1:1,000 in 25 ml LB and grown for 16 h at 37° C. and 300 r.p.m. in 250 ml flasks before treatment with a carbon source and antibiotic. Previous work has shown that almost all stationary-phase S. aureus cells are persistent^25.
At specified time points, 10-μl aliquots of samples were removed, serially diluted and spot-plated onto LB agar plates to determine colony-forming units per ml (c.f.u. ml^−1). […]

The test system of assay [1] is stationary-phase E. coli cells. Type of assay: cell-based, Escherichia coli. Here is the method:
Given that aminoglycoside uptake is energy-dependent^16, we investigated whether the metabolic stimuli screened here could increase aminoglycoside uptake. We measured uptake by fluorescently labelling gentamicin with Texas red and analyzing cells by fluorescence-activated cell sorting (FACS). Cells were pre-incubated with metabolites for 30 min before a 5-min treatment with gentamicin-Texas red (FIG. 1D and FIG. 14).
Gentamicin-Texas red was made as previously described^27. At 4° C., 1 mg of Texas red (Invitrogen) was dissolved in 50 μl of high-quality anhydrous N,N-dimethylformamide. The dissolved Texas red was added slowly to 2.3 ml of 10 mg ml^−1 gentamicin solution in 100 mM K2CO3 at 4° C.
Uptake of gentamicin-Texas red induced by carbon sources in stationary-phase cells was determined by adding concentrated carbon sources (see section on media and growth conditions for concentrations) to stationary-phase cultures and incubating them for 30 min at 37° C., 300 r.p.m. and 80% humidity. Concentrated gentamicin-Texas red was then added to a final concentration of 10 μg ml^−1 and samples were incubated for 5 min. 100 μl of each sample was then washed with 1 ml of PBS and re-suspended in 1 ml of PBS. […] Samples were analysed on a BD FACS Aria II flow cytometer with the following settings: mCherry voltage, 650 V; FSC threshold, 1,000; recorded events, 100,000; gated-out mCherry events. <30.

The subject of assay [2] is uropathogenic E. coli biofilms. Kind of assay: Mouse chronic urinary tract infection assay. Type of assay: in vivo, mice (BALB/c). The following applies: i.v. twice daily for 3 days; gentamicin 1 mg/kg, mannitol 1.5 g/kg. Here is the method:
Female Charles River Balb/C mice (weighing 22-26 g) received surgical implantation in the urinary tract of 6 mm PESO catheter tubing that had been incubated in cultures of uropathogenic E. coli for 24 hours to form biofilms. Forty-eight hours after surgery, mice received no treatment or twice-daily, intravenous treatment with gentamicin (1 mg/Kg) or mannitol (1.5 g/Kg) and gentamicin (1 mg/Kg) for three days. Seven to eight mice were included in each group. Twenty-four hours after the last treatment, catheter tubing was extracted to determine biofilm viability and kidneys were removed to determine bacterial load.
To determine the clinical relevance of metabolic potentiation of aminoglycosides in vivo, we tested the ability of gentamicin in combination with mannitol to treat chronic, biofilm-associated infection in a mouse model. Catheters colonized with uropathogenic E. coli biofilms were implanted in the urinary tracts of mice (FIG. 3D). Two days after surgery, mice received either no treatment or intravenous treatment with gentamicin or gentamicin and mannitol for 3 days, after which the catheters were removed and biofilm viability was determined. Gentamicin alone had no effect, whereas gentamicin in combination with mannitol reduced the viability of the catheter biofilms by nearly 1.5 orders of magnitude (FIG. 3D). […]

The next assay has as its system S. aureus persisters. The assay is described as follows: S. aureus persister assay. The format is cell-based, Staphylococcus aureus (ATCC 25923). Here is the method: as §1, with “Previous work has shown that, approximately all, stationary phase S. aureus cells are persistent.” left out
At specified time points, 10-μl aliquots of samples were removed, serially diluted and spot-plated onto LB agar plates to determine colony-forming units per ml (c.f.u. ml^−1). Only dilutions that yielded 10-100 colonies were counted Survival was determined by dividing the c.f.u. ml^−1 of a sample at each time point by the initial c.f.u. ml^−1 for that sample.

For `O=C[C@@H](O)[C@H](O)[C@H](O)CO` [arabinose], in the assay with E. coli persisters, the “potentiation of gentamicin against E. coli persisters by metabolite” value was “low potentiation”.
In the case of `CC1(C)S[C@@H]2[C@H](NC(=O)[C@H](N)c3ccccc3)C(=O)N2[C@H]1C(=O)O` [ampicillin], in the assay with E. coli persisters, the “killing of E. coli persisters by antibiotic without metabolite” value (from here on “killing … by antibiotic without metabolite”) was “none of the bactericidal antibiotics used in this study (ofloxacin, ampicillin, and gentamicin) caused killing of cells; also recorded: neither the β-lactam ampicillin nor the quinolone ofloxacin showed appreciable killing”; the “killing of E. coli persisters by antibiotic in the presence of mannitol” value is “neither the β-lactam ampicillin nor the quinolone ofloxacin showed appreciable killing”.
As to `O=C[C@H](O)[C@H](O)[C@H](O)CO` [ribose], the “potentiation of gentamicin against E. coli persisters by metabolite” value with E. coli persisters is on record as “low potentiation”.
Take `O=C(O)CO` [glycolate]: the “uptake of Texas Red probe” value in assay [1] (30 mM glycolate, stationary phase E. coli) is listed as “affects the uptake of Texas Red probe”.
Consider gentamicin, for which, in the assay with E. coli persisters, the “killing … by antibiotic without metabolite” value was “none of the bactericidal antibiotics used in this study (ofloxacin, ampicillin, and gentamicin) caused killing of cells; also recorded: No killing”; the “killing of E. coli persisters by antibiotic in the presence of mannitol” value is “rapidly eliminated”. The “reduction of viability of catheter biofilms” value in assay [2] is given as “no effect”.
`O=C(CO)[C@@H](O)[C@H](O)[C@H](O)CO` [fructose]: in the assay with E. coli persisters, the “reduction of persister viability (killing by gentamicin induced by metabolite)” value was “three orders of magnitude” and the “potentiation of gentamicin against ΔndhΔnuoI strain persisters” value was “not potentiated”. For the same compound, in the assay on S. aureus persisters (gentamicin and fructose, with or without CCCP, 4 h), the “PMF dependence of fructose potentiation in S. aureus” value was “requires PMF generation; also recorded: PMF-dependent killing”.
In the case of `O=C(O)[C@H](O)[C@@H](O)[C@H](O)[C@H](O)CO` [gluconate], the “potentiation of gentamicin against E. coli persisters by metabolite” value with E. coli persisters is reported as “low potentiation”.
Regarding `OC[C@@H](O)[C@@H](O)[C@H](O)[C@H](O)CO` [mannitol], in the assay with E. coli persisters, the “reduction of persister viability (killing by gentamicin induced by metabolite)” value is listed as “three orders of magnitude” and the “potentiation of gentamicin against ΔndhΔnuoI strain persisters” value is reported as “not potentiated”. Besides, in the assay on S. aureus persisters, the “potentiation of gentamicin against S. aureus persisters by metabolite” value is “little potentiation”.
As to `N#CC(C#N)=NNc1cccc(Cl)c1` [CCCP, carbonyl cyanide m-chlorophenyl hydrazone], in the assay with E. coli persisters (20 μM CCCP pre-incubation, 10 μg/mL gentamicin plus carbon sources), the “effect of CCCP on metabolite potentiation of gentamicin” value is on record as “abolish aminoglycoside potentiation by all of the carbon sources; also recorded: abolishes metabolite-enabled potentiation”. Moreover, the “effect of CCCP on metabolite-induced gentamicin-Texas red uptake” value in assay [1] (20 μM CCCP, 10 μg/mL Gent-TR, 30 min on carbon source) is “suppressed the metabolite-induced uptake of aminoglycoside”.
Regarding `[H]/N=C(/N)N[C@H]1[C@H](O)[C@@H](O)[C@H](O[C@@H]2O[C@@H](C)[C@](O)(C=O)[C@H]2O[C@@H]2O[C@@H](CO)[C@H](O)[C@@H](O)[C@@H]2NC)[C@@H](N/C(N)=N\[H])[C@@H]1O` [streptomycin], the “killing … by antibiotic without metabolite” value in the assay with E. coli persisters is “no appreciable killing”. Also, the “aminoglycoside activity against E. coli persisters with upper-glycolytic metabolites” value with E. coli persisters (plus glucose, mannitol or fructose, 30 μg/mL kanamycin, 50 μg/mL streptomycin) was “greatly enabled”.

These data come from patent publication US10660911B2, “Proton-motive force stimulation to potentiate aminoglycoside antibiotics against persistent bacteria” (TRUSTEES OF BOSTON UNIVERSITY, priority 2011, dated 2020).
